# Laboratory results from patent US9849141B2, “Use of spironolactone-based composition that exhibits an inhibitory action on T-lymphocyte activation which is useful for preventing and/or treating multiple sclerosis” (PONTIFICIA UNIVERSIDAD CATOLICA DE CHILE, priority 2010, dated 2017).
# Key:
# [1] = tested on: dendritic cells / CD4+ T-cells; details: cited from earlier work
# [2] = tested on: CD8+ or CD4+ T-lymphocytes co-cultured with antigen-presenting cells (dendritic cells); assay: T-lymphocyte activation by ovalbumin-pulsed antigen-presenting cells, IL-2 ELISA; assay type: cell-based, transgenic mice; details: 5 ug/ml during co-culture, 24 hrs, antigen-presenting cells pulsed with 10 ug/ml ovalbumin (FIG. 2)
# Protocol: FIG. 2. Plots showing the effect of a composition comprising spironolactone in the inhibition of activation of T-lymphocytes through antigen-presenting cells. Antigen-presenting cells (dendritic cells) were pulsed with ovalbumin, washed and co-cultured with CD8+ or CD4+T-lymphocytes obtained from transgenic mice whose TCR specifically recognizes an ovalbumin derived peptide charged on class I or II MHC respectively. At the same time, the culture was treated with spironolactone (-□-) eplerenone (-▾-) or not treated (control -▴-) and after 24 hours, the supernatant was withdrawn and the presence of interleukin-2 (IL-2) assayed using ELISA. *p<0.05 one-way ANOVA.
# Antigen-presenting cells were pulsed with 10 ug/ml of ovalbumin (OVA) protein over 24 hrs, washed and then co-cultured with CD8+ or CD4+T-lymphocytes obtained from transgenic mice whose TCR recognizes specifically a ovalbumin derived peptide charged in MHC class I or II, respectively. […] After 24 hrs, the supernatant was withdrawn and IL-2 secretion, a cytokine secreted by activated T-lymphocytes, was assayed using ELISA assay. In this specific immunological test, it is expected the activation of said T-lymphocytes and, therefore, an increase in IL-2 secretion.
# [3] = tested on: experimental autoimmune encefalomyelitis (EAE); details: administration to EAE mice; for MR inhibitors also in mice that did not receive aldosterone; cited from earlier work
# [4] = tested on: immune synapsis between T-lymphocytes and antigen-presenting cells; assay: Immune synapsis between antigen-presenting cells and T-lymphocytes, Golgi polarization by confocal fluorescence microscopy; assay type: cell-based; details: 5 ug/ml in culture medium, co-culture 2 hrs (FIG. 4B)
# Excerpt: FIG. 4: Photographs using confocal fluorescence microscopy, showing immunological synapsis between antigen-presenting dendritic cells and T-lymphocyte. T-lymphocytes were dyed with BODIPY FL C5-Ceramide, which is directed to the Golgi apparatus, while antigen-presenting cells were dyed with CMTMR-Orange and co-cultured without spironolactone (FIG. 4A) or in the presence of spironolactone (FIG. 4B) during 2 hrs, afterwards, the cells were observed under a confocal fluorescence microscope.
# It has been determined that an efficient activation of T-lymphocytes requires an stable interaction between the antigen-presenting cell and the T-lymphocyte, which is known as “immune synapsis”. A stable immune synapsis is translated in a polarization of the Golgi apparatus, an organelle in charge of protein transport, of the T-lymphocyte towards the contacting site with the antigen-presenting cell. In this way, it is possible to observe an efficient immune synapsis checking if a polarization from Golgi apparatus towards the contacting site with the antigen-presenting cell exists or not. […] Afterwards, both cell groups were contacted and the interaction between cells using a confocal fluorescence microscope was observed. […]
# [5] = tested on: purified CD8+ T-lymphocytes; assay: T-lymphocyte activation by plate-bound anti-CD3ε independent of antigen-presenting cells, IL-2 ELISA; assay type: cell-based; details: 5 ug/ml, 24 hrs, plate activated with different concentrations of anti-CD3ε (FIG. 3)
# Protocol: FIG. 3: Plots showing the effect of a composition comprising spironolactone or epleronone in the activation of T-lymphocytes independent from antigen-presenting dendritic cells. An ELISA plate was activated with different concentrations of anti-CD3ε overnight, and then purified CD8+ T-lymphocytes were added and treated for 24 hrs with spironolactone (-□-), eplerenone (-▾-) o not treated (control -▴-). When the time was completed the supernatant was extracted and the IL-2 levels were determined using ELISA.
# The following experiment was made in order to determine if spironolactone acts directly on T-lymphocytes or the effect is on the function of antigen-presenting cells. An ELISA plate was activated with different concentrations of anti-CD3ε overnight, and then, purified CD8+T-lymphocytes were added and treated with either spironolactone or epleronone (5 ug/ml) during 24 hrs. After that period, the supernatant was withdrawn and IL-2 levels were determined using ELISA. This assay is based on that T-lymphocytes, beside expressing TCR, express a protein denominated CD3, which transduces the activating signal, generated by the interaction of TCR with the antigenic peptide bound to the MHC of the antigen-presenting cell, to the interior of the T-lymphocyte.
# [6] = tested on: experimental autoimmune encefalomyelitis (EAE) induced with MOG 35-55 peptide; assay: Effect of a spironolactone composition in EAE mice (clinical score); assay type: in vivo, C57BL/6 female mice; details: EAE induced C57BL/6 mice, pellets supplemented with daily dose of 1.8 mg per mouse, oral, vs control group on standard pellets (FIG. 1)
# [7] = tested on: systemic lupus erythematosus-like disease in FcγII receptor knockout mice; assay: Effect of spironolactone in systemic lupus erythematosus mice; assay type: in vivo; details: pellets supplemented with 1.8 mg daily, oral, compared to regularly fed mice (FIG. 5)
Compound,suppression of activator effects of aldosterone in the function of dendritic cells [1],"activation of T-lymphocytes (IL-2 secretion, ELISA) [2]",induction of T helper 17 (Th17) phenotype in CD4+ T-cells by stimulated dendritic cells ([1]; dendritic cells stimulated with aldosterone),effect on disease in EAE mice [3],immune synapsis (polarization of the Golgi apparatus of the T-lymphocyte towards the antigen-presenting cell) [4],secretion of IL-2 (ELISA) [5],clinical score associated with the disease [6],deposition of immune complexes in the kidney [7]
COC(=O)[C@@H]1CC2=CC(=O)CC[C@]2(C)[C@@]23O[C@@H]2C[C@@]2(C)[C@@H](CC[C@@]24CCC(=O)O4)[C@H]13 [epleronone],could be suppressed,no such inhibiting effect on the activation of T-lymphocytes is observed,–,–,–,–,–,–
C[C@]12CCC(=O)C=C1CC[C@@H]1[C@@H]2[C@@H](O)C[C@]2(C=O)[C@@H](C(=O)CO)CC[C@@H]12 [aldosterone],–,–,induce the T helper 17 (Th17) phenotype in CD4+ T-cells,showed a deterioration in their disease,–,–,–,–
CC(=O)S[C@@H]1CC2=CC(=O)CC[C@]2(C)[C@H]2CC[C@@]3(C)[C@@H](CC[C@@]34CCC(=O)O4)[C@H]12 [spironolactone],could be suppressed,inhibits the activation of T-lymphocytes,–,only spironolactone had protecting effects,immune synapsis is not produced,same inhibiting effect on the secretion of IL-2,significantly reduces the clinical score,did not observe a decrease in the deposition of immune complexes in the kidney
